Laboratory results as given in patent US20050282811A1, “Diazabicyclic histamine-3 receptor antagonists” (Pfizer Inc, priority 2004, published 2005).

target: T1, rat histamine H3 receptors (Rattus norvegicus, UniProt Q9QYN8); assay: Rat H3 Binding (3H-N-methylhistamine displacement, frontal brain membranes); conditions: frozen rat frontal brain membranes; radioligand 1 nM 3H-N-methylhistamine; 1 hour incubation
T1 construct: Frozen rat frontal brain or frozen human post-mortem frontal brain is homogenized; from tissue; host or cells: rat frontal brain membranes
T1 sequence (Q9QYN8 whole entry): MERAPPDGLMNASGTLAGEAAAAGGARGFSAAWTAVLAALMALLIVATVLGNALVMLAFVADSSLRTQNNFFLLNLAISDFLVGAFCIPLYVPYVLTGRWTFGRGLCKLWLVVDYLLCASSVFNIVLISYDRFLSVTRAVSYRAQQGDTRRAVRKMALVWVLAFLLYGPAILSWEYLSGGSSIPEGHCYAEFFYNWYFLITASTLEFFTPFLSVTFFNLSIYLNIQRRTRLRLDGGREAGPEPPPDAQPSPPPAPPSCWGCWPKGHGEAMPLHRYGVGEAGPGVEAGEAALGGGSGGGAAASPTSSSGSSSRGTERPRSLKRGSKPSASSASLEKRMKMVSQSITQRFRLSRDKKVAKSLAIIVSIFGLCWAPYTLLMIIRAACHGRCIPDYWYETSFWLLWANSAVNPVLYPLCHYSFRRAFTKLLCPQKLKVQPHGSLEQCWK
Description: The in vitro affinity of the compounds in the present invention at the rat or human histamine H3 receptors can be determined according to the following procedure. Frozen rat frontal brain or frozen human post-mortem frontal brain is homogenized in 20 volumes of cold 50 mM Tris HCl containing 2 mM MgCl2 (pH to 7.4 at 4 degrees C.). The homogenate is then centrifuged at 45,000 G for 10 minutes. The supernatant is decanted and the membrane pellet re-suspended by Polytron in cold 50 mM Tris HCl containing 2 mM MgCl2 (pH to 7.4 at 4 degrees C.) and centrifuged again. The final pellet is re-suspended in 50 mM Tris HCl containing 2 mM MgCl2 (pH to 7.4 at 25 degrees C.) at a concentration of 12 mg/mL. Dilutions of compounds are made in 10% DMSO/50 mM Tris buffer (pH 7.4) (at 10×final concentration, so that the final DMSO concentration is 1%). Incubations are initiated by the addition of membranes (200 microliters) to 96 well V-bottom polypropylene plates containing 25 microliters of drug dilutions and 25 microliters of radioligand (1 nM final concentration ^3H-N-methylhistamine). After a 1 hour incubation, assay samples are rapidly filtered through Whatman GF/B filters and rinsed with ice-cold 50 mM Tris buffer (pH 7.4) using a Skatron cell harvester. Radioactivity is quantified using a BetaPlate scintillation counter.

Ki | Structure (SMILES)
55 nM | COc1ccc(CN2CCN3C[C@H](COCCCN4CCCCC4)CC[C@H]3C2)cc1 (relative stereo) [Example 6]
125 nM | c1ccc(CN2CCN3C[C@H](COCCCN4CCCCC4)CC[C@H]3C2)cc1 (stereo in doubt) [Example 2, trans-2-Benzyl-7-(3-piperidin-1-ylpropoxymethyl)-octahydro-pyrido[1,2-a]pyrazine]
54 nM | c1ccc(CCN2CCN3C[C@H](COCCCN4CCCCC4)CC[C@H]3C2)cc1 (stereo in doubt) [Example 3, trans-2-Phenethyl-7-(3-piperidin-1-ylpropoxymethyl)-octahydro-pyrido[1,2-a]pyrazine]
37 nM | c1ccc(CCCN2CCN3C[C@H](COCCCN4CCCCC4)CC[C@H]3C2)cc1 (stereo in doubt) [Example 4, trans-2-(3-Phenylpropyl)-7-(3-piperidin-1-ylpropoxymethyl)-octahydro-pyrido[1,2-a]pyrazine]
35 nM | CC(=O)c1ccc(CN2CCN3C[C@H](COCCCN4CCCCC4)CC[C@H]3C2)cc1 (stereo in doubt) [Example 5, trans-1-{4-[7-(3-Piperidin-1-ylpropoxymethyl)-octahydro-pyrido[1,2-a]pyrazin-2-ylmethyl]-phenyl}-ethanone]
28 nM | COc1cccc(CN2CCN3C[C@H](COCCCN4CCCCC4)CC[C@H]3C2)c1 (stereo in doubt) [Example 7, trans-2-(3-Methoxybenzyl)-7-(3-piperidin-1-ylpropoxymethyl)-octahydro-pyrido[1,2-a]pyrazine]
26 nM | Fc1ccc(CN2CCN3C[C@H](COCCCN4CCCCC4)CC[C@H]3C2)cc1 (stereo in doubt) [Example 8, trans-2-(4-Fluorobenzyl)-7-(3-piperidin-1-ylpropoxymethyl)-octahydro-pyrido[1,2-a]pyrazine]
9 nM | Fc1cccc(CN2CCN3C[C@H](COCCCN4CCCCC4)CC[C@H]3C2)c1 (stereo in doubt) [Example 9, trans-2-(3-Fluorobenzyl)-7-(3-piperidin-1-ylpropoxymethyl)-octahydro-pyrido[1,2-a]pyrazine]
14 nM | Clc1ccc(CN2CCN3C[C@H](COCCCN4CCCCC4)CC[C@H]3C2)cc1 (stereo in doubt) [Example 10, trans-2-(4-Chlorobenzyl)-7-(3-piperidin-1-ylpropoxymethyl)-octahydro-pyrido[1,2-a]pyrazine]
33 nM | Clc1cccc(CN2CCN3C[C@H](COCCCN4CCCCC4)CC[C@H]3C2)c1 (stereo in doubt) [Example 11, trans-2-(3-Chlorobenzyl)-7-(3-piperidin-1-ylpropoxymethyl)-octahydro-pyrido[1,2-a]pyrazine]
70 nM | CC(=O)Nc1ccc(CN2CCN3C[C@H](COCCCN4CCCCC4)CC[C@H]3C2)cc1 (stereo in doubt) [Example 12, trans-N-{4-[7-(3-Piperidin-1-ylpropoxymethyl)-octahydro-pyrido[1,2-a]pyrazin-2-ylmethyl]-phenyl}-acetamide]
33 nM | c1cc(CN2CCN3C[C@H](COCCCN4CCCCC4)CC[C@H]3C2)ccn1 (stereo in doubt) [Example 13, trans-7-(3-Piperidin-1-yl-propoxymethyl)-2-pyridin-4-ylmethyl-octahydro-pyrido[1,2-a]pyrazine]
90 nM | c1ccc(CN2CCN3C[C@H](COCCCN4CCCCC4)CC[C@H]3C2)nc1 (stereo in doubt) [Example 15, trans-7-(3-Piperidin-1-yl-propoxymethyl)-2-pyridin-2-ylmethyl-octahydro-pyrido[1,2-a]pyrazine]
114 nM | CN1CCN2C[C@H](COCCCN3CCCCC3)CC[C@H]2C1 (stereo in doubt) [Example 16, trans-2-Methyl-7-(3-piperidin-1-ylpropoxymethyl)-octahydro-pyrido[1,2-a]pyrazine]
60 nM | CC(=O)c1ccc(CN2CCN3C[C@@H](COCCCN4CCCCC4)CC[C@H]3C2)cc1 (stereo in doubt) [Example 17, cis-1-{4-[7-(3-Piperidin-1-ylpropoxymethyl)-octahydro-pyrido[1,2-a]pyrazin-2-ylmethyl]-phenyl}-ethanone]
> 69 nM | Clc1ccc(CN2CCN3C[C@@H](COCCCN4CCCCC4)CC[C@H]3C2)cc1 (stereo in doubt) [Example 18, cis-2-(4-Chlorobenzyl)-7-(3-piperidin-1-ylpropoxymethyl)-octahydro-pyrido[1,2-a]pyrazine]
26 nM | CS(=O)(=O)c1ccc(CN2CCN3C[C@@H](COCCCN4CCCCC4)CC[C@H]3C2)cc1 (stereo in doubt) [Example 21, cis-2-(4-Methanesulfonylbenzyl)-7-(3-piperidin-1-ylpropoxymethyl)-octahydro-pyrido[1,2-a]pyrazine]
155 nM | C1CCN(CCCOC[C@@H]2CC[C@H]3CNCCN3C2)CC1 (stereo in doubt) [Intermediate 3, trans-7-(3-Piperidin-1-ylpropoxymethyl)-octahydro-pyrido[1,2-a]pyrazine]
42 nM | CS(=O)(=O)c1ccc(CN2CCN3C[C@H](COCCCN4CCCCC4)CC[C@H]3C2)cc1 [Example 1, trans-(7R, 9aS)-2-(4-Methanesulfonylbenzyl)-7-(3-piperidin-1-ylpropoxymethyl)-octa-hydro-pyrido[1,2-a]pyrazine]
